# Source: patent US9089540B2, “Method for determination of sensitivity to anti-cancer agent” (KEIO UNIVERSITY, priority 2008, dated 2015)
# Legend:
# [1] = Clinical blood exposure to SN-38 after irinotecan administration, calculated from interview form parameters; format: in vivo, human
# Protocol: Based on the pharmacokinetic parameters of SN-38 (Campto™, interview form), the area under the curve of SN-38 blood concentration (AUCSN-38) obtained after the first irinotecan administration of the colon cancer therapy regimen (180 mg/m^2/day) was calculated to be 1,449 nmol·h/L. The concentration of SN38 required to obtain the same exposure amount through 72-hour exposure employed in this Example was calculated to be 20 nM. Therefore, a cut off value was set to 20 nM for the IC50 value of each cancer cell line with respect to SN-38 and the cancer cell lines were classified into two groups of a high sensitivity group and a low sensitivity group. As a result, there was a significant increase in the peak intensity of the peak detected at m/z of 11,000 to 11,100 in the low sensitivity group (FIG. 6).
# [2] = system: 5 kinds of human colorectal cancer cell lines (COLO320, HCT-15, HT-29, LS174T, HCT116); test: Evaluation of SN-38 sensitivity, MTS assay (cell survival rate); format: cell-based; conditions: 72 hours exposure, range over 5 cell lines, read-out: IC50 value of each cell line (SN-38 sensitivity)
# Protocol: After exposure of each cell line to 0 to 1,000 μmol/Loxaliplatin for 48 hours, a cell survival rate was evaluated with MTS assay (CellTiter96™ AQueous One Solution Cell Proliferation Assay, Promega). Then, IC50 value (a concentration at which the number of cells is suppressed to 50% with respect to that in an oxaliplatin-untreated well) was calculated and used as an oxaliplatin sensitivity in each cell line. The evaluation of the sensitivity was performed four times with cells having different passage numbers and the average value and the standard deviation value thereof were calculated.
# As cells, 5 kinds of human colorectal cancer cell lines (COLO320, HCT-15, HT-29, LS174T, HCT116 (HCT116 was obtained from ECACC)), and as a drug, an irinotecan active metabolite (SN-38, obtained from Yakult Honsha, Co., Ltd.) were used. The cell survival rate after exposure to 0 to 1,000 nmol/L SN-38 for 72 hours was evaluated by MTS assay in the same manner as in Example 1 and the IC50 value was calculated. […] For the analysis, ProteinChip™ Reader (Model PCS4000 Personal Edition, Bio-Rad) was used, and the analysis was performed under the following conditions: mass range, 0 to 70,000 daltons; focus mass, 11,000 daltons; energy, 3,000 nJ; and 265 shots in total per sample. […]
# [3] = human, in vivo, 100 mg/m2
# [4] = roughly corresponding to the cut off value; cited from earlier work
smiles,measurement,setting,value
CCc1c2c(nc3ccc(O)cc13)-c1cc3c(c(=O)n1C2)COC(=O)[C@]3(O)CC [SN-38],concentration of SN38 required to obtain the same exposure amount through 72-hour exposure,[1]; AUC equivalent over 72-hour exposure,0.02 µM
same,area under the curve of SN-38 blood concentration (AUCSN-38),"[1]; after first irinotecan administration of colon cancer regimen, 180 mg/m^2/day","1,449 nmol·h/L"
same,IC50,[2],3.39 to 33.7 nM
"N.N.[Cl][Pt][Cl] [cisplatin, cis-Diammineplatinum(II) dichrolide]",Cmax,[3],9.5 to 11 µM
"O=C1[O][Pt]2([NH][C@@H]3CCCC[C@H]3[NH]2)[O]C1=O [oxaliplatin, (SP-4-2)-[(1R,2R)-cyclohexane-1,2-diamine-κN,κN′][ethanedioato (2-)-κO^1,κO^2]platinum]",peak blood concentration at the time of clinical use,[4],~5.0 µM
